Results on one molecule are retold here after BindingDB's records for doi:10.1074/jbc.M110.206193 (Takeda Pharmaceutical, 2011).

In test [1] the target is Epidermal growth factor receptor (Homo sapiens, UniProt P00533). The test is described as follows: Enzyme Assay. The following applies: pH 7.5. Here is the method:
(§1) The EGFR, HER2 and HER4 kinase assay were performed using radiolabeled [gamma-32P] ATP from GE Healthcare.

In test [2] the target is Receptor tyrosine-protein kinase erbB-4 (Homo sapiens, UniProt Q15303). Put plainly: Enzyme Assay. The conditions noted are these: pH 7.5. Here is the method:
as §1

Each structure is given as a SMILES string. A value given as a limit tells only on which side of the number the result lay.

Sequence of Epidermal growth factor receptor (P00533 whole entry): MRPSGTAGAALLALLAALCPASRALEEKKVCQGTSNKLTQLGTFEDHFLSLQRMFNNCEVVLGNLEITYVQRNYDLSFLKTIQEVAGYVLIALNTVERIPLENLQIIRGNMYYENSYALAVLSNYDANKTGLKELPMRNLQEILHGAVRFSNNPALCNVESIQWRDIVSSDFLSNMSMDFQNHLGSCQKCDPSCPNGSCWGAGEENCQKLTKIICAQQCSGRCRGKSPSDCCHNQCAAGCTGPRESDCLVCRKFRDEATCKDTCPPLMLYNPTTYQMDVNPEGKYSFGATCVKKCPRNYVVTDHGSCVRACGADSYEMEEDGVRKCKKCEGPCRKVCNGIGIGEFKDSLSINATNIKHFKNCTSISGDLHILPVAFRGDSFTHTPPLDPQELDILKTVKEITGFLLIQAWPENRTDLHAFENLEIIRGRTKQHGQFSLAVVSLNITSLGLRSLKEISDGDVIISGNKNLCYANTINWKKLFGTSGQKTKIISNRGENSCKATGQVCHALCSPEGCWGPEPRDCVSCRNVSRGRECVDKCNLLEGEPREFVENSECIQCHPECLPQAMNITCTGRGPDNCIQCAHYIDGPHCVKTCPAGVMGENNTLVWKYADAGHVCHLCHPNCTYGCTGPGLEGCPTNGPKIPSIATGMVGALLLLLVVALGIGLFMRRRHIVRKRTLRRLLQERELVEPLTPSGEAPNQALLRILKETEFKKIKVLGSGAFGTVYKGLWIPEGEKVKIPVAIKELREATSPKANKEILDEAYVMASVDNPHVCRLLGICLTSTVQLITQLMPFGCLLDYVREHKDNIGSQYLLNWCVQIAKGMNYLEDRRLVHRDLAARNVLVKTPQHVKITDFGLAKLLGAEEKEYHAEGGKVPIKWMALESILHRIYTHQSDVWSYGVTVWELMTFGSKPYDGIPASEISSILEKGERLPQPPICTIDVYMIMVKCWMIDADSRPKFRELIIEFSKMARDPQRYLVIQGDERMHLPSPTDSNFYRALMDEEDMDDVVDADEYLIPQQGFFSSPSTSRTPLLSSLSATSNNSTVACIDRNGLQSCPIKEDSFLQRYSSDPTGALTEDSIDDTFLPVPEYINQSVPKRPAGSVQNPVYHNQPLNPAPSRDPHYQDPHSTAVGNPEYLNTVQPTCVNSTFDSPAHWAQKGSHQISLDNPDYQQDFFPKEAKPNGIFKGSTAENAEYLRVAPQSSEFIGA
Sequence of Receptor tyrosine-protein kinase erbB-4 (Q15303 whole entry): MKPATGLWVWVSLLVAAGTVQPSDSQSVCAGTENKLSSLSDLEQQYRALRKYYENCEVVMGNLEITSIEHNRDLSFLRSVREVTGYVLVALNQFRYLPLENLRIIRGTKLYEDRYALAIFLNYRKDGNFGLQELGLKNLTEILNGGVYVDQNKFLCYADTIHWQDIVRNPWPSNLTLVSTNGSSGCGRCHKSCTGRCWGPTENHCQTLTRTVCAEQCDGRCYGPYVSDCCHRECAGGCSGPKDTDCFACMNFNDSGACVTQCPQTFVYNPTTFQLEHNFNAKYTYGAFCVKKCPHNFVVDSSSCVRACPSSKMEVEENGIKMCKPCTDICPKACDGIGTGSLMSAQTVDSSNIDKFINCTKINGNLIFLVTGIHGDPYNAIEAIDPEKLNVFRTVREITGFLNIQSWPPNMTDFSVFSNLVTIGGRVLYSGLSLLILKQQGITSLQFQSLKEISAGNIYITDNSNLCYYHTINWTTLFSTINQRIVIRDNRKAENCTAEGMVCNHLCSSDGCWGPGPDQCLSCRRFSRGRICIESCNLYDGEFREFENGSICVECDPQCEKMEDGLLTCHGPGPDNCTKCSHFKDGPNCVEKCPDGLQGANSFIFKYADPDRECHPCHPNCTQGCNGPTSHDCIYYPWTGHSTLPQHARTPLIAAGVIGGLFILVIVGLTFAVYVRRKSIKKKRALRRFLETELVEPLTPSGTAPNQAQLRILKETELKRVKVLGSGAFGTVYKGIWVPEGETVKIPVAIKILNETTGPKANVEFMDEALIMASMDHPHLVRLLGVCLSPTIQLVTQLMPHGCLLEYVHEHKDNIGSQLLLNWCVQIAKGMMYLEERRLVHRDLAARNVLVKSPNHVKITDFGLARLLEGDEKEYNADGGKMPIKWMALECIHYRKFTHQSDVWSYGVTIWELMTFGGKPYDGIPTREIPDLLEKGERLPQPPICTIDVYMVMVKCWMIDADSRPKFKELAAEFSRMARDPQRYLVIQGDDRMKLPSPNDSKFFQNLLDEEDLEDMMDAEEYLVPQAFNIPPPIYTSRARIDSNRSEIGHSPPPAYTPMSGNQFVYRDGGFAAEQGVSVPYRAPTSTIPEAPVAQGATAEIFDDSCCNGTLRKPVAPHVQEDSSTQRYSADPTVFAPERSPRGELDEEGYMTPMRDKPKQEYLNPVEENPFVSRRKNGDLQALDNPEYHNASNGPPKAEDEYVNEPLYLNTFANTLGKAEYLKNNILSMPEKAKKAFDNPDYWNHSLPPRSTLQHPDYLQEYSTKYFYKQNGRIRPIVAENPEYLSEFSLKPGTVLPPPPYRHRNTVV

A word on the IC50: it is the midpoint of a concentration-inhibition curve. The low end stands for greater potency in that assay, the high end for weaker potency in that assay. Consider `OCCOCn1ccc2ncnc(Nc3cnc(Oc4cccc(C(F)(F)F)c4)c(Cl)c3)c21` [SYR127063], for which the IC50 was 429 nM in test [1] and more than 10000 nM in test [2].
